In patent US11266624B2, “CRM1 inhibitors reduce primary and acquired resistance of EGFR inhibitors in lung cancer cells” (Texas Tech University System, priority 2018, dated 2022):
Like-named read-outs stand apart in the source and are kept apart here. Marks after values point to notes of the source that are not given here. One block for each molecule: values may come before it.

Legend:
A549 [1] = conditions: A549, KRAS-mutant NSCLC cell line; cited from earlier work
[2] = tested on: snail-transduced primary human mammary epithelial cells (HEMCs); conditions: 24-72 hrs treatment; cited from earlier work
NSCLC cells [3] = conditions: cited from earlier work
NSCLC cells [4] = conditions: cited from earlier work; remark: listed apart in the source
H522 = H522 (p53-mutant); read-out: LMB IC50; cited from earlier work
[5] = tested on: NSCLC cell lines (A549, H522, and H358) and BEAS-2B; conditions: A549, H522, H358 vs BEAS-2B; cited from earlier work
H460 = assay: MTT cell viability assay in H460; conditions: 0.5 nM LMB
Source text: (§1) Cell lines and reagents. The NSCLC cell lines A549 and H460 were purchased from American Type Culture Collection (ATCC).
(§2) Cell viability assay. […] Experiments were repeated independently three times.
(§3) Statistical analyses. […] One-way ANOVA was used to determine the difference in the analytical results of flow cytometry, qRT-PCR, Western bot, wound healing assay, anchorage-independent growth assay, transwell invasion assay, and Bio-Plex multiplex immunoassay among groups followed by a Fisher's LSD test. Differences with p<0.05 were considered statistically significant.

A549 [6] = assay: Western blot of EGFR signaling and survival pathways in A549; assay type: cell-based, human
Procedure: Western blot analyses. […] Relative densitometric digital analysis for bands of targeted proteins was determined using Image J and normalized by the intensity of the housekeeping gene, α-tubulin.

A549 [7] = assay: Analysis of cell cycle by flow cytometry in A549; assay type: cell-based, human; conditions: 48 hrs
Source text: Analysis of cell cycle by flow cytometry. […] Each sample was run in triplicate and each experiment was repeated three times.

H358 = H358 (p53 null); read-out: LMB IC50; cited from earlier work
[8] = single therapeutic agent; cited from earlier work
A549 [9] = conditions: A549 (p53 wide type), 48 hrs; read-out: LMB IC50; cited from earlier work
A549 [10] = assay: cells
Source text: as §1, §2, §3

A549GLR = assay: cells
Source text: as §1, §2, §3

A549GR = assay: cells
Source text: as §1, §2, §3

[11] = Homo sapiens, A549, read-out: IC50 of afatinib
[12] = 12 μM gefitinib (alone or + 0.5 nM LMB)
[13] = 24 μM gefitinib (alone or + 0.5 nM LMB)

Structure (SMILES): COc1cc(-c2ncn(/C=C\C(=O)OC(C)C)n2)cc(C(F)(F)F)c1 [KPT-185]
Response of A549 to treatment (A549 [1]): not responsive
Effect on EMT [2]: reverse EMT
Cell cycle arrest (NSCLC cells [3]): arrested NSCLC cells in the G1 phase
Synergistic cytotoxic effects with EGFR TKIs (NSCLC cells [4]): no synergistic cytotoxic effects

Structure (SMILES): O=C(/C=C\n1cnc(-c2cc(C(F)(F)F)cc(C(F)(F)F)c2)n1)NNc1cnccn1 [KPT-330, Selinexor]
Response of A549 to treatment (A549 [1]): not responsive
Effect on EMT [2]: reverse EMT

Structure (SMILES): CCC(=C/[C@H](C)C/C=C/C(C)=C/[C@@H](C)C(=O)[C@@H](C)[C@H](O)[C@@H](C)C/C(C)=C/C(=O)O)/C=C/[C@@H]1OC(=O)C=C[C@@H]1C [LMB, Leptomycin B]
IC50 (H522): 5.7 nM
Cell growth inhibition, cancer vs normal cells [5]: remarkable cell growth inhibition in NSCLC cell lines (A549, H522, and H358) but not normal human lung epithelial cells (BEAS-2B)
Cytotoxic effect (cell viability) (H460): 92±5 % of control
Relative protein expression level of Akt (A549 [6]; 0.5 nM LMB alone, 48 hrs, A549, control 100.0±0): 86±2
p21 expression (A549 [6]; A549, 48 hrs, LMB vs control, gefitinib+LMB vs gefitinib alone): dramatically increased
Effect on EMT [2]: reverse EMT
Cell cycle (%) G0/G1 (A549 [7]; 0.5 nM LMB alone): 57.9 ± 3.1 ^b %
Cell cycle (%) G2/M (A549 [7]; 0.5 nM LMB alone): 24.4 ± 0.6 ^b %
Cell cycle (%) Pre-G1 (A549 [7]; 0.5 nM LMB alone): 13.5 ± 2.7 ^b %
Cell cycle (%) S (A549 [7]; 0.5 nM LMB alone): 3.6 ± 1.2 ^b %
IC50 (H358): 0.5 nM
Toxicities in phase I trial [8]: gastrointestinal toxicities like malaise and anorexia
IC50 (A549 [9]): 13.1 nM
Cytotoxic effect (cell viability) (A549 [10]): 89±4 % of control
Cytotoxic effect (cell viability) (A549GLR): 88±5 % of control
Cytotoxic effect (cell viability) (A549GR): 96±3 % of control

IC50 (A549 [10]; [11]): 6 ± 1.2 µM
IC50 (A549GLR; [11]): 8 ± 1.5 µM
IC50 (A549GR; [11]): 20 ± 2.7 µM
Structure (SMILES): CN(C)C/C=C/C(=O)Nc1cc2c(Nc3ccc(F)c(Cl)c3)ncnc2cc1O[C@H]1CCOC1 [afatinib]

Structure (SMILES): COc1cc2ncnc(Nc3ccc(F)c(Cl)c3)c2cc1OCCCN1CCOCC1 [gefitinib]
Cell cycle (%) G0/G1 (A549 [7]; [12]): 68.0 ± 2.9 ^a %
Cell cycle (%) G2/M (A549 [7]; [12]): 19.9 ± 2.2 ^a %
Cell cycle (%) Pre-G1 (A549 [7]; [12]): 2.1 ± 0.4 ^a %
Cell cycle (%) S (A549 [7]; [12]): 9.7 ± 2.4 ^a %
Cell cycle (%) G0/G1 (A549 [7]; [13]): 84.0 ± 0.9 ^b %
Cell cycle (%) G2/M (A549 [7]; [13]): 7.9 ± 0.6 ^b %
Cell cycle (%) Pre-G1 (A549 [7]; [13]): 4.0 ± 1.3 ^b %
Cell cycle (%) S (A549 [7]; [13]): 3.4 ± 0.3 ^b %
